From patent US20240327361A1, “RADIOLABELED COMPOSITIONS AND METHODS OF USE THEREOF” (The Research Foundation for the State University of New York, priority 2021, published 2024) come the findings set out here.

For one data set, the system named is class-lla HDACs. Nature of the data set: In vivo microPET imaging of healthy rats (biodistribution, self-blocking with cold TMP195). Details: species or system Sprague Dawley rats. The protocol:
Sprague Dawley rats (200-250 g, N=3,) were anesthetized with 3% isoflurane in oxygen and maintained at 2% isoflurane in oxygen throughout the imaging studies. Anesthetized rat was placed in the uPET (Siemens, Knoxville, TN) with the skull positioned in the center of the field of view. The tracer (500-700 μCi/animal) was administered intravenously into each Rat (n=3 per group) in a total volume 0.5-1.0 ml solution. Dynamic PET images were obtained over 60 minutes. Images were reconstructed with attenuation correction using an ordered subset expectation maximization (OSEM2D) algorithm with 16 subsets and 4 iterations.
Dynamic PET images were analyzed with Inveon Research Workplace 4.0 (Siemens, Knoxville, TN) and AMIDE software using manual segmentation of regions of interest (ROI), were drawn over ROI on the decay-corrected coronal images. The radioactivity accumulation (tracer uptake) within the ROI were obtained as percentage of the injected dose (ID) per gram of tissue (% ID/g). The time-activity curve (TAC) was generated from the region of interest (ROI) by plotting the radioactivity/cc vs time.
(§1) Anesthetized Sprague Dawley rats (200-250 g, N=6) were placed in the Inveon uPET (Siemens, Knoxville, TN) in the supine position with the skull positioned in the center of the field of view. [^18F]-NT160 was formulated in ethanol:polysorbate 80:saline (10:10:80%) and it was stable in this formulation at 37° C. at least for 4 hours. [^18F]-NT160 (18.5-25.9 MBq/animal) was administered via the tail-vein injection in a total volume 0.5-1.0 ml. Dynamic PET images were obtained over 60 minutes followed by CT imaging (15 min scan). Images were reconstructed with attenuation correction using an ordered subset expectation maximization (OSEM2D) algorithm with 16 subsets and 4 iterations. PET image analysis was performed using the AMIDE software by using manual segmentation of regions of interest (ROI), including: whole brain, cortex, hippocampus, thalamus, cerebellum, and brain stem. Rat Brain Atlas was used for alignment and identification of specific anatomical markers of the brain. The time-activity curve (TAC) was generated from the region of interest (ROI) by plotting the radioactivity/cc vs time. Levels of accumulation of the radiotracer in tissues were expressed as standard uptake values (SUV) that were calculated for the regions of interest (ROI) using the AMIDE software. The SUV is defined as the ratio of the tissue radioactivity concentration C (e.g. expressed as Bq/g tissue) at given time point post injection T, and the injected dose (e.g. in Bq, decay-corrected to the same time T), and normalized by the body weight in grams. GraphPad Prism (Graph Pad Software La Jolla, CA) was used for image data analysis. [^18F]-NT2-160 was also prepared by the same or similar procedure.

Data set [1] can be described thus: Partition coefficient, octanol/PBS shake flask method. In kind it is physicochemical. Particulars: phosphate buffer pH 7.4.
Description: The log P was determined by partitioning the tracer between octanol and phosphate buffer at pH 7.4 and measuring the concentration of the tracer in each layer. The radioactivity of each layer is counted using gamma-counter. The partition coefficient (P) is calculated as [radioactivity (cpm/ml) in 1-octanol)]/[(radioactivity (cpm/ml) in phosphate buffer pH 7.4].
Data set [2] in a line: Stability of the tracer in its injection formulation. The settings on record: ethanol:polysorbate 80:saline (10:10:80%), 37° C. Type of data set: physicochemical. The protocol:
as §1, with “PET image analysis was performed using the AMIDE software by using manual segmentation of regions of interest (ROI), including: whole brain, cortex, hippocampus, thalamus, cerebellum, and brain stem. Rat Brain Atlas was used for alignment and identification of specific anatomical markers of the brain.” left out, “GraphPad Prism (Graph Pad Software La Jolla, CA) was used for image data analysis. [^18F]-NT2-160 was also prepared by the same or similar procedure.” left out

The mark [3] stands for this setting: rat, co-administered TMP195 2 mg/kg.

With `CC(C)(CNC(=O)c1cccc(-c2noc(C(F)(F)[18F])n2)c1)c1coc(-c2ccccc2)n1` [^18F-NT57], the “tracer uptake in the harderian gland” value in the data set on class-lla HDACs (rat) was “neither specific nor unique”. Further, in the data set with class-lla HDACs (rat brain PET), the “biodistribution / uptake in brain regions” value was “heterogeneous”. Also, the “uptake in the wrist” value with class-lla HDACs (rat, baseline and blocking with TMP195) was “intense and blockable”. Moreover, the “uptake in the brown fat adipose tissues (BATs)” value with class-lla HDACs (rat, cervical and interscapular BAT, 60 min) is “intense and increased uptake”. In the data set with class-lla HDACs (setting [3]), the “brain uptake with cold dose of TMP195 vs baseline (self-blocking)” value is on record as “reduced” and the “tracer uptake in BATs with cold dose of TMP195 (blocking)” value is reported as “reduced”. For the same compound, in the data set with class-lla HDACs (rat, dynamic PET over 60 min), the “accumulation in the liver” value is given as “accumulated heavily” and the “clearance from most normal tissues (heart, brain, muscle)” value was “rapid clearance”. Moreover, the “peak uptake in the brain” value in the data set with class-lla HDACs (rat, intravenous tracer, dynamic PET over 60 min) was roughly 1 % ID/g. Moreover, the “tracer uptake in the muscle” value in the data set on class-lla HDACs (rat, not affected by blocking) was “low and nonspecific”. Besides, in data set [1], the logD (commonly the decadic logarithm of the distribution of all forms, ionised or not, between an organic phase and buffer at a given pH) was greater than 6.
On to `C[C@H](CN(C)Cc1ccccc1)NC(=O)c1ccc(-c2noc(C(F)(F)[18F])n2)cc1` [[^18F]-NT160], for which, in data set [2], the stable in formulation is no less than 4 h.
